These results are taken from publication PMC9851200, “Multiparameter phenotypic screening for endogenous TFEB and TFE3 translocation identifies novel chemical series modulating lysosome function” (Autophagy, 2022).

What all share (format): binding
Experiment [1] concerns the target T1, kinases (KINOMEscan panel) (Homo sapiens, UniProt O14730).
T1 sequence (O14730 1-519): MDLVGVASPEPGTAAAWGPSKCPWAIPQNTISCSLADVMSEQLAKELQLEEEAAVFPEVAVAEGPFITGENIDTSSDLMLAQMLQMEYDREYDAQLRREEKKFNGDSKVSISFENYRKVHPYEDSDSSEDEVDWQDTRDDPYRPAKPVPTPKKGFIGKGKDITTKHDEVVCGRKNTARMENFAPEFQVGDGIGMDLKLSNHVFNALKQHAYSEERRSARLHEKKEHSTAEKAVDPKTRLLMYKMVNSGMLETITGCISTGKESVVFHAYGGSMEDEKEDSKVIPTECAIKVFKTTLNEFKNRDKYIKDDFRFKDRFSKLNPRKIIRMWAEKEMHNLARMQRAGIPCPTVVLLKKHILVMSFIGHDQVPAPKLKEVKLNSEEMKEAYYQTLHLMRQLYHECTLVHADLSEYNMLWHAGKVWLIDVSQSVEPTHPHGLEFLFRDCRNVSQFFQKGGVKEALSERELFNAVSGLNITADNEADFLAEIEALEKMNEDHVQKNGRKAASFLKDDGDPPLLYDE
The note with it: RIOK3; NEW KINOMEscan.

Experiment [2] has as its target T2, kinases (KINOMEscan panel) (Homo sapiens, UniProt Q7L7X3).
T2 sequence (Q7L7X3 1-1001): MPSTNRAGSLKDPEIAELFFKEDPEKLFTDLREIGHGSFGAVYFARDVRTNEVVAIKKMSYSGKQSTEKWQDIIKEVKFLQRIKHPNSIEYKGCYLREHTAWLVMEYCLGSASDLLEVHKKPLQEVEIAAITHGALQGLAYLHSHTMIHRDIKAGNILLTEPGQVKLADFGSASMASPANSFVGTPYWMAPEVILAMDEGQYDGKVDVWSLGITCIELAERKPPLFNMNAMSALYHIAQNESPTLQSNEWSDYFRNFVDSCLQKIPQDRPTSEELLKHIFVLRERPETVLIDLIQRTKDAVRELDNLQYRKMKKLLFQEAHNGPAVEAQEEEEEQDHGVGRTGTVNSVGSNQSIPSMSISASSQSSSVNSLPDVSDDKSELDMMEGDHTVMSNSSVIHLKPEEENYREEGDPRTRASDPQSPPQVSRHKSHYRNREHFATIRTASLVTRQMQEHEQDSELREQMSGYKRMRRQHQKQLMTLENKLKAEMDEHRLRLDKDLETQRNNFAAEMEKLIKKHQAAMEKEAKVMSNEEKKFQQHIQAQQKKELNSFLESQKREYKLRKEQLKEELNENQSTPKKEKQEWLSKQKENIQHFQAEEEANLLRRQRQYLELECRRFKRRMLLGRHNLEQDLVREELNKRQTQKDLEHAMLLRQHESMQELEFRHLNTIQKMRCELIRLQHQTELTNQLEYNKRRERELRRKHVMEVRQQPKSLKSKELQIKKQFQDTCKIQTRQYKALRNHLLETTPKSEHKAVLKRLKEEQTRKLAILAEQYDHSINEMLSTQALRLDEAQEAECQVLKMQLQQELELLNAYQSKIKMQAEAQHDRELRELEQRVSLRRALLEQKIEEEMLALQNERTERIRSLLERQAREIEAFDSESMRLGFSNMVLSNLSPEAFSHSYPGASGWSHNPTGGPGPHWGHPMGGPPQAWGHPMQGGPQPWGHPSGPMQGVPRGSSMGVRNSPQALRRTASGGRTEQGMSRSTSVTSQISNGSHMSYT
To be noted: kinase TAOK1; NEW KINOMEscan.

In experiment [3] the target is T3, kinases (KINOMEscan panel) (Homo sapiens, UniProt Q59H18).
T3 sequence (Q59H18 1-835): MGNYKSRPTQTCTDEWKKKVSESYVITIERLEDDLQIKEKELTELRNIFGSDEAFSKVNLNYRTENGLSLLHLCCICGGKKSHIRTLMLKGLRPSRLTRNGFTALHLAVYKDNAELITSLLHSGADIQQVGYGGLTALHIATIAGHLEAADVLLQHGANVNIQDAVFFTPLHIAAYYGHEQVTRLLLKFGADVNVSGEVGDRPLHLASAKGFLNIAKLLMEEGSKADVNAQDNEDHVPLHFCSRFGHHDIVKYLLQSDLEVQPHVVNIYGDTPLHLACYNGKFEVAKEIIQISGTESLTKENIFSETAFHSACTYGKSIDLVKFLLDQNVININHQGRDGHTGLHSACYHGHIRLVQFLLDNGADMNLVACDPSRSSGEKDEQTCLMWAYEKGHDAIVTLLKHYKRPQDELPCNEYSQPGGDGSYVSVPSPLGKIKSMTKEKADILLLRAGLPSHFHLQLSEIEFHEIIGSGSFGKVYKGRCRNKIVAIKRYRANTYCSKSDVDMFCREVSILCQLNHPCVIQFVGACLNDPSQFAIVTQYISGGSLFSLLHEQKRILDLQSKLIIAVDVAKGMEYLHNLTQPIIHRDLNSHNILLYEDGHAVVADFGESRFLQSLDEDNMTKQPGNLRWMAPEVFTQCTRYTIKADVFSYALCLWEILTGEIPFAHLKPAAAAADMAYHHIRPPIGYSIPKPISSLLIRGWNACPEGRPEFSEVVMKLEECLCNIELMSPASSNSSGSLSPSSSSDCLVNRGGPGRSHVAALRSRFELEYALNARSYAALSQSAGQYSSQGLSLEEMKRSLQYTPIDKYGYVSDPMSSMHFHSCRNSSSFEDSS
The note with it: kinase TNNI3K; NEW KINOMEscan.

Experiment [4] deals with kinases (KINOMEscan panel) (Homo sapiens, UniProt Q14004).
Sequence of kinases (KINOMEscan panel) (Homo sapiens, UniProt Q14004) (Q14004 whole entry): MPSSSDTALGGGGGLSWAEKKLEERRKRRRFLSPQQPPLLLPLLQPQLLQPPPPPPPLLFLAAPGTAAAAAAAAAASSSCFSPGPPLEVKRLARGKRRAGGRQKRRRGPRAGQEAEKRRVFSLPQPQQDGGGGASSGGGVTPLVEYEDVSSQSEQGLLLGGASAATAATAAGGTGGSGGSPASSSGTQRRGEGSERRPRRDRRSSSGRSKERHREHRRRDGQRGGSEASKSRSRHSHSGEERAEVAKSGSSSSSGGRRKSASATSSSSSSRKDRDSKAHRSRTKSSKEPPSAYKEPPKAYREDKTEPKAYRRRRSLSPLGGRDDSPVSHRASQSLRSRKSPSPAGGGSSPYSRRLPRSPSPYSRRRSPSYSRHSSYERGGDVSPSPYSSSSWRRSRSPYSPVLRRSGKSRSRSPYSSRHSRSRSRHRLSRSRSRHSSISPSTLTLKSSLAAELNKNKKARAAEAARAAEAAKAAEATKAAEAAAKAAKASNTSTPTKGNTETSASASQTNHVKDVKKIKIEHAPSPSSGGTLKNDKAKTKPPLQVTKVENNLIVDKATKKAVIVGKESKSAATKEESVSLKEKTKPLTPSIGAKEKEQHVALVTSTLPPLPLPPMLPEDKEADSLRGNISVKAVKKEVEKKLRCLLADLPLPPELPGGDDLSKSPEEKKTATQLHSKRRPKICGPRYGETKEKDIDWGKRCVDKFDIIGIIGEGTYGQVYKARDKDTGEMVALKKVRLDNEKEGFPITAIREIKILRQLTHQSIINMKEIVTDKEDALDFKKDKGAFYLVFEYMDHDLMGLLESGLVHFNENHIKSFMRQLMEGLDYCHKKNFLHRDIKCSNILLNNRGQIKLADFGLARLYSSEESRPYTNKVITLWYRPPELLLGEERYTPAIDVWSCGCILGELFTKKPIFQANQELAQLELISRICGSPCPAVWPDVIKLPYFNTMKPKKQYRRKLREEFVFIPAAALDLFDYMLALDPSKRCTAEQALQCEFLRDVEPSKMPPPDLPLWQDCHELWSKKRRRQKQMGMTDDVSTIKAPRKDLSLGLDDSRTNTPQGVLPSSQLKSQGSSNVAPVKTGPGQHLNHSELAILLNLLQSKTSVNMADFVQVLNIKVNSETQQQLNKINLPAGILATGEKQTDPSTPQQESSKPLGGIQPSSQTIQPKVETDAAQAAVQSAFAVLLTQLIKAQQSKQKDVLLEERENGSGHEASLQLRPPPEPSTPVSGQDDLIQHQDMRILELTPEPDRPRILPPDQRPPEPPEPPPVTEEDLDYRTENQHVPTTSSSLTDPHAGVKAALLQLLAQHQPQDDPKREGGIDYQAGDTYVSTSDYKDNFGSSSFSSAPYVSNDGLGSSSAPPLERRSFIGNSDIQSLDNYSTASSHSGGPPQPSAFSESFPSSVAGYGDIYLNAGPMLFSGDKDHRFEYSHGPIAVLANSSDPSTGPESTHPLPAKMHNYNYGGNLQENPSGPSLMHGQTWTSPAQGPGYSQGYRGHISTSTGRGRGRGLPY
For experiment [5], the target named is kinases (KINOMEscan panel) (Homo sapiens, UniProt P29597). The note with it: NEW KINOMEscan; for KINOMEscan TYK2(JH1domain-catalytic): kinase TYK2(JH1domain-catalytic).
Sequence of kinases (KINOMEscan panel) (Homo sapiens, UniProt P29597) (P29597 whole entry): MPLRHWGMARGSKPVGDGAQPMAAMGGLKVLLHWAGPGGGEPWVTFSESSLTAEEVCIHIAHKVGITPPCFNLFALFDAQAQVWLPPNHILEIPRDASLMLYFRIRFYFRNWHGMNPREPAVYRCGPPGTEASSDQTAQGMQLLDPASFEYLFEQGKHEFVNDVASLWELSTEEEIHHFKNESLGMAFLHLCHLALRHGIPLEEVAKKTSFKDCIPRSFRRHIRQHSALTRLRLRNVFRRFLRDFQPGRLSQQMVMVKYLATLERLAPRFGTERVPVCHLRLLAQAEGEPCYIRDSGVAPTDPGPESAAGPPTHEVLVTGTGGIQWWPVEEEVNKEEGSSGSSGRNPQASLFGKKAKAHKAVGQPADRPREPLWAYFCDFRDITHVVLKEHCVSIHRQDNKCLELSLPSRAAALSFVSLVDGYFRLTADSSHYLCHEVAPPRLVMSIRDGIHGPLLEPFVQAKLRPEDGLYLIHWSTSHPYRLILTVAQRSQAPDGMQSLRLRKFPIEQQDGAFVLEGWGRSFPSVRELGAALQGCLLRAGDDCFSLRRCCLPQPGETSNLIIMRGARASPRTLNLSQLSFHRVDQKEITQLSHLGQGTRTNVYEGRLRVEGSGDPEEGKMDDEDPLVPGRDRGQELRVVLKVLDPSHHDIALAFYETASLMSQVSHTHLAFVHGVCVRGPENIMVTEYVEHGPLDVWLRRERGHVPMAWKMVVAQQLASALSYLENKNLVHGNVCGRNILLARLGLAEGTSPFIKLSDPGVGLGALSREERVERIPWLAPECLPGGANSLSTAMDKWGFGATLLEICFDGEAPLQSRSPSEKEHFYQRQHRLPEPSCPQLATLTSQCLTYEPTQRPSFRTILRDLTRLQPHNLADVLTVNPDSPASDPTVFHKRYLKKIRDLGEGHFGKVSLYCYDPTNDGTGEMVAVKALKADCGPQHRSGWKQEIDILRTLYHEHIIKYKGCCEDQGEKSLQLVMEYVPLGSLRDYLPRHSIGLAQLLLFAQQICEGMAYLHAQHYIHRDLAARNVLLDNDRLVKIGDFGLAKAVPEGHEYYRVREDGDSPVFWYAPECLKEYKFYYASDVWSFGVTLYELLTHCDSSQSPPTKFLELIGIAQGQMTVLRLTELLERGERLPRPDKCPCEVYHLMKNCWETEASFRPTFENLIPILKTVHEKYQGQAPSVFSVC
Experiment [6] concerns the target kinases (KINOMEscan panel) (Homo sapiens, UniProt Q15569). To be noted: TESK1; NEW KINOMEscan.
Experiment [7] has as its target kinases (KINOMEscan panel) (Homo sapiens, UniProt Q9BYP7). To be noted: NEW KINOMEscan.
The target in experiment [8] is kinases (KINOMEscan panel) (Homo sapiens, UniProt Q86V86). To be noted: kinase PIM3; NEW KINOMEscan.
In experiment [9] the target is kinases (KINOMEscan panel) (Homo sapiens, UniProt Q9H422). The note with it: kinase HIPK3; NEW KINOMEscan.
Sequence of kinases (KINOMEscan panel) (Homo sapiens, UniProt Q9H422) (Q9H422 whole entry): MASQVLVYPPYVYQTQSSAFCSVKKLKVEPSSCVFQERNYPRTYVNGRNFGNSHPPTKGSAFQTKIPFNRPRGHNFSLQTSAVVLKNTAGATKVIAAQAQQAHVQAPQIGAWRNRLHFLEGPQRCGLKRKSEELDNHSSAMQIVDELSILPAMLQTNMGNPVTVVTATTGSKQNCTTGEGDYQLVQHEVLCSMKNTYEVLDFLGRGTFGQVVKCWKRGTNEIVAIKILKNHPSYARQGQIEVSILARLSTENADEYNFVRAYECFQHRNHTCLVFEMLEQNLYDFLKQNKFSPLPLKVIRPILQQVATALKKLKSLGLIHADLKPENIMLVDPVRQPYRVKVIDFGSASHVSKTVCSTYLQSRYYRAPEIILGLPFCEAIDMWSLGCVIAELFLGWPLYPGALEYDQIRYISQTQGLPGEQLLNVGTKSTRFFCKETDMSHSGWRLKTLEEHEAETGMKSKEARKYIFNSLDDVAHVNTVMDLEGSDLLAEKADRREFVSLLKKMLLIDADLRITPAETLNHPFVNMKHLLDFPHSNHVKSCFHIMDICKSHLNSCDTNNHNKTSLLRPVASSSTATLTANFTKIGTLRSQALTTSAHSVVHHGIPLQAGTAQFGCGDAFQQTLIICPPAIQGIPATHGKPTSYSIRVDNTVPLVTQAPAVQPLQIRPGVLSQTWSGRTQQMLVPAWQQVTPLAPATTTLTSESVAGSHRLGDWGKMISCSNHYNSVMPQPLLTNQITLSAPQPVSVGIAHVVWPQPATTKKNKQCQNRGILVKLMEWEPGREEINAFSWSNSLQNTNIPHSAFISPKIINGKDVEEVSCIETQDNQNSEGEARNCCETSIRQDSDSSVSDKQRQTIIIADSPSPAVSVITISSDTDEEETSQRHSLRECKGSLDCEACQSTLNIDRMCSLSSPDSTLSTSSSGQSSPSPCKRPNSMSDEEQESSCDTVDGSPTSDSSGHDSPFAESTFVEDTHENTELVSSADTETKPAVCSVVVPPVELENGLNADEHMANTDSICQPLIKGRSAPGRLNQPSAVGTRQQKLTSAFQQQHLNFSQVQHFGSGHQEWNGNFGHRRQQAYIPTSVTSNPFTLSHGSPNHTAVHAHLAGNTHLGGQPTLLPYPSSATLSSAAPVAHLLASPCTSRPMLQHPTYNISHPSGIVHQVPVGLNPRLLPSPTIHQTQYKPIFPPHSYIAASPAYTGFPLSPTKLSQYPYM
The target of experiment [10] is kinases (KINOMEscan panel) (Homo sapiens, UniProt P42336, E545A). To be noted: NEW KINOMEscan.

Sequence of kinases (KINOMEscan panel) (Homo sapiens, UniProt Q15569) (Q15569 whole entry): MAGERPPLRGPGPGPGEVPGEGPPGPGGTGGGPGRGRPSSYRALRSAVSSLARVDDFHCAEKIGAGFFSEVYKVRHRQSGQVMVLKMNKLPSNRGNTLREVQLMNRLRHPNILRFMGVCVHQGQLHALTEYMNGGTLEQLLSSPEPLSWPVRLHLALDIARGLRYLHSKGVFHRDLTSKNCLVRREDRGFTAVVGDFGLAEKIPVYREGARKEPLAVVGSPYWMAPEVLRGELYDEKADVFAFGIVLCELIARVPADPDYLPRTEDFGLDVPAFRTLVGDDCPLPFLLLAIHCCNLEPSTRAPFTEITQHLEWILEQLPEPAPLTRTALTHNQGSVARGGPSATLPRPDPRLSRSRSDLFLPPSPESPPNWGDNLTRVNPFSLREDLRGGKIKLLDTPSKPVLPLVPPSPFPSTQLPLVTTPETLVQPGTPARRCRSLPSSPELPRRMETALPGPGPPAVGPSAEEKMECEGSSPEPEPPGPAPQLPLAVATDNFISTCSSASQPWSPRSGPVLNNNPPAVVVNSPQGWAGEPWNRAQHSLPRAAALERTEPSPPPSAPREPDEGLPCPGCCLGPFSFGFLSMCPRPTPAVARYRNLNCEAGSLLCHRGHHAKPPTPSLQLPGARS

Turning to `Cc1cccc(-c2nc(N(C)c3ccc4ncsc4c3)c3ccccc3n2)n1` [NK-161], the “KINOMEscan RIOK3” value in [1] is 0. Besides, the “KINOMEscan TAOK1” value in experiment [2] was found to be 1. Besides, the “KINOMEscan TNNI3K” value in [3] is given as 9. Also, the “KINOMEscan CDK13” value in experiment [4] was 6. Further, in [5], the “KINOMEscan TYK2(JH2domain-pseudokinase)” value is reported as 12 and the “KINOMEscan TYK2(JH1domain-catalytic)” value worked out at 0. Besides, in experiment [6], the “KINOMEscan TESK1” value came out at 0. The “KINOMEscan WNK3” value in experiment [7] turned out to be 28. Further, the “KINOMEscan PIM3” value in [8] turned out to be 0. Further, the “KINOMEscan HIPK3” value in experiment [9] worked out at 0. The “KINOMEscan PIK3CA(E545A)” value in experiment [10] is on record as 14.
Turning to `Cc1cccc(-c2nc(Nc3ccc4nn(C)cc4c3)c3ccccc3n2)n1` [NK167], the “KINOMEscan RIOK3” value in experiment [1] is recorded as 0. In experiment [2], the “KINOMEscan TAOK1” value worked out at 0. Also, the “KINOMEscan TNNI3K” value in [3] worked out at 6. Besides, the “KINOMEscan CDK13” value in experiment [4] is 8. In addition, in experiment [5], the “KINOMEscan TYK2(JH2domain-pseudokinase)” value amounted to 0 and the “KINOMEscan TYK2(JH1domain-catalytic)” value was 0. Moreover, the “KINOMEscan TESK1” value in [6] came out at 0. The “KINOMEscan WNK3” value in experiment [7] is recorded as 0. Moreover, the “KINOMEscan PIM3” value in experiment [8] was found to be 0. The “KINOMEscan HIPK3” value in experiment [9] stood at 0. Also, the “KINOMEscan PIK3CA(E545A)” value in [10] came to 31.
